System: human LDL
Assay: Lipid peroxide-suppressing action: CuSO4-induced LDL oxidation, TBARS assay (Example 1)
Type: biochemical
Conditions: 0.2 mg/mL LDL + 5 μM CuSO4, 37° C., 3 hours, mean, n=2
Method: As an action of capturing free group (free radical-scavenging action), the effect of N-β-alanyl-5-S-glutathionyl-3,4-dihydroxyphenylalanine (5-S-GAD) on LDL oxidation was examined. As controls, dopamine and Carnosine (under trade name; N-acetylcarnosine as the ingredient name) used as eye drops for cataract were used. LDL was prepared by a fractionation and centrifugation method. A fraction at a specific gravity of 1.019 to 1.063 g/mL in serum was defined as human LDL. 5 μM CuSO4, 5-S-GAD (3 to 100 μM) and N-acetyl-carnosine (100 μM to 10 mM) or L-carnosine (10 μM to 10 mM) were added to 0.2 mg/mL LDL, for incubation at 37° C. for 3 hours. After termination of the incubation, TBARS (a substance reactive with thiobarbituric acid) was assayed. Although the TBA reaction is a non-specific reaction, the reaction is used for a method of assaying various lipid peroxide products including malone dialdehyde. An experiment of peroxidation with copper sulfate was done twice (N=2). An aqueous solution containing 3.75 mg/mL thiobarbituric acid (TBA), 150 mg/mL trichloroacetic acid (TCA) and 0.25 N hydrochloric acid (HCl) was prepared as the TBA reagent, while tetramethoxypropane was used to prepare standard solutions (2, 5, 10, 20, 40 μM). 100 μL each of an LDL sample or a standard solution was added together with 200 μL of the TBA reagent into an Eppendorf tube (1.5 mL), which was then sealed with a cap for thorough mixing. After heating at 95° C. for 15 minutes, the resulting mixture was cooled in water and centrifuged at 3000 rpm for 5 minutes. The supernatant was assayed of the absorbance (535 nm). Based on the absorbance of the standard solutions, a standard curve was prepared. Based on the standard curve, the amount of TBARS in the LDL sample was calculated (in nmol/mg LDL protein) (mean, n=2, see Table 1 and FIG. 1).

`NCCc1ccc(O)c(O)c1` [dopamine, reference compound] was tested, and the “Amount of TBARS” value (10 μM added) was 58.853 nmol/mg LDL protein, the “Amount of TBARS” value (30 μM added) was 4.454 nmol/mg LDL protein and the “Amount of TBARS” value (100 μM added) was 4.208 nmol/mg LDL protein.

From patent US8304452B2, “Radical scavenger and active oxygen eliminating agent” (InBiotex Inc., priority 2005, dated 2012)
